# Where a name gives a salt, the structure may show the parent alone.
# Columns and labels:
# OVCAR8 tumor spheroid [1] = assay: Destruction of spheroid by monochromatic X-ray irradiation; assay type: cell-based, Human; conditions: 30 minutes, then 3 days incubation
# Procedure: Irradiation of monochromatic X-rays was performed in beamline BL14B1 of large-scale synchrotron radiation facility SPring-8 located in Sayo-cho, Sayo-gun, Hyogo Prefecture, Japan. […] First, white X-ray generated from the bending magnet of SPring-8 was guided to an exit-position fixed two-crystal monochromator having silicon 311 crystal to generate a monoenergetic X-ray beam (monochromatic X-ray). SPring-8 storage ring was operated in the top-up mode under which fluctuation of X-ray intensity over time can be ignored due to a constant storage current of 100 mA to perform an irradiation experiment. The shape of the X-ray beam was controlled by using horizontal and vertical transport channel (TC) slits. The size of the X-ray beam at the position of a sample was 0.7 mm in height×1.4 mm in width. This is large enough to cover a spheroid having a size of 0.5 mm×0.5 mm. During experiments, the intensity of the X-ray beam was monitored in two ion chambers arranged on the optical axis. The X-ray transmitted was monitored by a CCD camera to control the position of the sample. […] Spheroids are placed at the bottom of tubes put in a sample rack.
# The iodine atom-containing Hoechst compound (I-Hoechst) and spheroids were incubated (24 hours) in the same manner as in Test Example 3 to obtain spheroids having the Hoechst compound taken up. The spheroids were put in tubes and the tubes were plated at the sample rack of the X-ray irradiation device. Since the sample rack is designed such that samples can be moved on the XYZ stage, the experimenter can perform X-ray irradiation by moving samples on the optical axis without entering the experimental hutch. After completion of X-ray irradiation to a sample, the sample rack is designed to automatically move such that the irradiation position faces the next sample. Thus, a series of X-ray irradiation can be automatically performed (see, FIG. 6). Before irradiation, the position of a sample was confirmed by an optical microscope and a laser, and monitored by a CCD camera during X-ray irradiation. Note that, since the energy of X-ray is extremely high, observation of spheroids and an absorption control of a tube by the CCD camera was not made. A refractive X-ray image of a tube was obtained to monitor of a sample position. The photon flux at a position of a sample was calculated as 3.9×10^8 (photons/second) by use of the SPECTRA code.
# The spheroids prepared as mentioned above were irradiated with a monochromatic X-ray (energy: 33.0 key, 33.2 keV or 33.4 keV) for 30 minutes. After X-ray radiation, spheroids were incubated in a CO2 incubator at 37° C. for 3 days and thereafter, observed by a confocal microscope (visible light and fluorescent light). […]
# [2] = tested on: DNA double strand in OVCAR8 tumor spheroid; assay: γH2AX assay of spheroids immediately after monochromatic X-ray irradiation; assay type: cell-based, Human
# Procedure: For investigating the mechanism of how to destroy spheroids, spheroids were irradiated with a monochromatic X-ray for 30 minutes. Immediately after irradiation and before incubation, spheroids were subjected to γH2AX assay to confirm the state of a DNA double strand. In the γH2AX assay, if a double strand is cleaved, red fluorescence is emitted. The γH2AX assay was performed by use of a commercially available kit in accordance with the instructions attached thereto.
# [3] = tested on: OVCAR8 tumor spheroid (hypoxic or normoxic); assay: Destruction of hypoxic spheroid by monochromatic X-ray irradiation; assay type: cell-based, Human; conditions: then monochromatic X-ray
# Procedure: The iodine atom-containing Hoechst compound (I-Hoechst) and spheroids were incubated (24 hours) in the same manner as in Test Example 3 to obtain spheroids having the Hoechst compound taken up therein. The spheroids were put in tubes and further incubated in a hypoxic (0% oxygen concentration) condition for further 18 hours. As a control, spheroids were incubated in a normal (not hypoxic) oxygen condition (20% oxygen concentration) in the same manner for 18 hours. After incubation in a hypoxic (or normoxic) condition, the spheroids were irradiated with monochromatic X-rays in the same manner as in Test Example 5. In the Test, whether spheroids are placed in a hypoxic condition was checked by inducing expression of a hypoxic marker, HIF-1α. Note that, HIF-1α is a kind of a hypoxia inducible factor and measurable by a commercially available kit.
# Furthermore, spheroids (nanoparticles carrying an iodine atom-containing Hoechst compound-spheroid) prepared in Test Example 8 are irradiated with monochromatic X-rays under a hypoxic condition in the same manner as in Test Example 7. It is confirmed that hypoxic spheroids irradiated with the X-rays are destroyed.
# [4] = tested on: ovarian cancer OVCAR8 cells; assay: Cytotoxicity test by LDH (lactate dehydrogenase) method; assay type: cell-based, Human
# Procedure: A Hoechst compound (normal compound containing no iodine atom) is generally considered to have low toxicity. The following experiment was carried out to confirm that iodine atom-containing Hoechst compounds have low toxicity. Iodine atom-containing Hoechst compounds (I-Hoechst, 3HCl) different in addition amount were each incubated with ovarian cancer OVCAR8 cells. Cytotoxicity was investigated by a commercially available kit in accordance with LDH (lactate dehydrogenase) method.
# Furthermore, the safety of the nanoparticles carrying an iodine atom-containing Hoechst compound is confirmed in the same manner as in Test Example 6.
# OVCAR8 tumor spheroid [5] = assay: Uptake into tumor spheroid, confocal microscopy; assay type: cell-based, Human; conditions: 5 nmol/mL
# Procedure: Human ovarian cancer cell OVCAR8 expressing green fluorescent protein (GFP) was used as a cancer cell. A tumor spheroid (hereinafter also referred to as “spheroid”) was formed from the cancer cell. Cancer cell OVCAR8 was cultured on RPMI1640 medium containing 10% inactivated FBS and 1% penicillin/streptomycin in a culture dish of 100 mm in diameter. For forming spheroids, […] of OVCAR8 cells were seeded in PrimeSurface96U culture plate (MS-9096U, Sumitomo Bakelite Co., Ltd). The OVCAR8 cells were cultured in a CO2 incubator at 37° C. for 7 days. Since the cells were not able to attach to a hydrophilic plate surface, the cells came together at the bottom of a well and formed three-dimensional spheroids at the bottom. In this manner, spheroids (estimated number of cells: approximately 100,000) of 500 μm in diameter were obtained.
# Subsequently, an iodine atom-containing Hoechst compound (I-Hoechst-3HCl) (0.1 mg, 151.57 nmol) was dissolved in water (1.5 mL) to prepare a solution containing the iodine atom-containing Hoechst compound (amount of the Hoechst compound: 100 nmol/mL). […]
# For the horizontal row, images in the column indicated by “GFP” are the observation results based on a fluorescence (green), whereas images in the column indicated by “I-Hoechst” are observation results based on staining (blue) with the Hoechst compound. […]
# [6] = tested on: Human ovarian cancer cell OVCAR8 expressing GFP; assay: Uptake by cancer cell, confocal microscopy; assay type: cell-based; conditions: 50 nmol/mL, 24 hours, 37° C.
# Procedure: Human ovarian cancer cell OVCAR8 expressing green fluorescent protein (GFP) was used as a cancer cell. Cancer cell OVCAR8 was cultured on RPMI1640 medium containing 10% inactivated FBS and 1% penicillin/streptomycin in a culture dish having a diameter of 100 mm. Furthermore, the iodine atom-containing Hoechst compound (I-Hoechst-3HCl) (0.1 mg, 151.57 nmol) was dissolved in water (0.15 mL) to prepare a solution (the amount of Hoechst compound: 1 μmol/mL) containing the iodine atom-containing Hoechst compound. The solution was added to the culture solution such that the amount of the Hoechst compound in the culture solution became 50 nmol/mL and incubated in a CO2 incubator at 37° C. for 24 hours. Thereafter, the culture medium was removed and the cells were washed. The cells were observed by a confocal microscope. Cell nuclei can be detected based on staining with a Hoechst compound (blue color emission) and expression of GFP (green fluorescence). […]
# Nanoparticles (IH-BPMO) carrying an iodine atom-containing Hoechst (I-Hoechst) were added to a medium containing cancer cells and culture was performed for 24 hours in accordance with Test Example 8. Fluorescence was observed by a microscope.
structure (smiles),measurement,setting,value
"CN1CCN(c2ccc3nc(-c4ccc5nc(-c6ccc(O)cc6)[nH]c5c4)[nH]c3c2)CC1 [Hoechst 33258, reference compound]",Spheroid destruction,"OVCAR8 tumor spheroid [1]; any of the monochromatic X-rays (33.0, 33.2 or 33.4 keV)",spheroids were not destroyed
CN1CCN(c2ccc3nc(-c4ccc5nc(-c6ccc(O)c(I)c6)[nH]c5c4)[nH]c3c2)CC1 [Hoechst 33342 analog 2],DNA double strand break (γH2AX red fluorescence),"[2]; 33.0 keV, 30 minutes, immediately after irradiation",no DNA double strands were broken
same,DNA double strand break (γH2AX red fluorescence),"[2]; 33.2 keV, 30 minutes, immediately after irradiation",a DNA double strand was broken
same,DNA double strand break (γH2AX red fluorescence),"[2]; 33.4 keV, 30 minutes, immediately after irradiation",a DNA double strand was broken although the degree of double strand break is lower than the 33.2-keV monochromatic X-ray
same,DNA double strand break (γH2AX red fluorescence),[2]; no irradiation with monochromatic X-ray,no DNA double strands were broken
same,Spheroid destruction,OVCAR8 tumor spheroid [1]; monochromatic X-ray 33.0 keV,spheroids were not destroyed
same,Spheroid destruction,OVCAR8 tumor spheroid [1]; monochromatic X-ray 33.2 keV,destroyed into pieces
same,Spheroid destruction,OVCAR8 tumor spheroid [1]; monochromatic X-ray 33.4 keV,spheroids were destroyed even though the degree of destruction was lower than the 33.2-keV monochromatic X-ray
same,Spheroid destruction in hypoxic condition,[3]; 0% oxygen 18 hours,effectively destroyed
same,Spheroid destruction in normoxia condition,[3]; 20% oxygen 18 hours,effectively destroyed
"CN1CCN(c2ccc3nc(-c4ccc5nc(-c6ccc(O)c(I)c6)[nH]c5c4)[nH]c3c2)CC1 [I-Hoechst-3HCl, Hoechst 33342 analog 2 trihydrochloride]",Concentration at which no toxicity was shown (LDH method),[4],≤ 20 µM
same,Permeation into interior of spheroid,OVCAR8 tumor spheroid [5]; confocal microscope,reaches not only cells close to the surface of a spheroid but also cells located at the center of the spheroid
same,Uptake and distribution in spheroids,"OVCAR8 tumor spheroid [5]; incubation 1, 24, 96 hours",efficiently taken up by spheroids and uniformly distributed over the entire spheroids 24 hours later
same,Uptake and localization in cancer cell,[6],"taken up within the cell, transported to the nucleus of the cell and localized in DNA"

# — patent publication US20250186431A1, “PHARMACEUTICAL COMPOSITION FOR RADIOTHERAPY, AND METHOD FOR TREATING SOLID CANCER USING SAME” (Kyoto University, priority 2022, published 2025)
